Test results: paper PMC3795776, “Alpha-Helical Destabilization of the Bcl-2-BH4-Domain Peptide Abolishes Its Ability to Inhibit the IP3 Receptor” (PLoS ONE, 2013)

Key:
[1] = CD spectroscopy, α-helical content (CONTIN/LL deconvolution); assay type: physicochemical; conditions: 50 µM peptide in 97.5% TFE / 2.5% methanol, 25 °C, 190-260 nm, ten scans, CDPro CONTIN/LL
Protocol: CD spectra (Jasco J-810 circular dichroism spectropolarimeter, USA) were recorded at 1 nm intervals over the 190-260 nm wavelength range using 1 mm path length quartz cells (Hellma, Germany). Ten scans were performed. The experiments were run at 20 nm/min and the temperature was fixed at 298^° K (25 °C). The secondary structure of the peptide (50 µM) was determined in 97.5% 2,2,2-trifluoroethanol (TFE) and 2.5% methanol. The ellipticity is calculated per mole of amino-acid residue. To estimate the secondary structure of the peptide in terms of α-helical content, an analysis of the relevant CD spectra was carried out using the CDPro software (http://lamar.colostate.edu/~sreeram/CDPro/main.html) developed by Woody and coworkers. The basis set 10 of the CDPro software was used. The analysis was performed using the CONTIN/LL [31], a self-consistent method with an incorporated variable selection.

[2] = system: IP3R-mediated Ca2+ release in permeabilized MEF cells; test: Unidirectional 45Ca2+-flux assay, IP3-induced Ca2+ release (IICR); assay type: cell-based, mouse; conditions: result in words; for effect on IP3R-mediated Ca2+ release at 50 µM peptide: 3 µM IP3, 50 µM peptide
Protocol: ^45Ca^2+-unidirectional flux experiments were performed as previously described. Twelve-well clusters containing MEF cells were fixed on a thermostated plate at 30 °C on a mechanical shaker. The culture medium was aspirated, and the cells were permeabilized by incubating them for 10 min in a solution containing 120 mM KCl, 30 mM imidazole-HCl (pH 6.8), 2 mM MgCl2, 1 mM ATP, 1 mM EGTA and 20 µg/ml saponin. The non-mitochondrial Ca^2+ stores were then loaded for 45 min in 120 mM KCl, 30 mM imidazole-HCl (pH 6.8), 5 mM MgCl2, 5 mM ATP, 0.44 mM EGTA, 10 mM NaN3 to prevent mitochondrial Ca^2+ uptake, and 150 nM free ^45Ca^2+ (28 µCi/ml). Then, 1 ml of efflux medium containing 120 mM KCl, 30 mM imidazole-HCl (pH 6.8) and 1 mM EGTA was added and replaced every 2 min. IP3 (3 µM) was added for 2 min after 10 min of efflux. At the end of the experiment, all ^45Ca^2+ remaining in the stores was released by incubation with 1 ml of a 2% (w/v) sodium dodecyl sulfate solution for 30 min. Ca^2+ release was plotted as fractional loss (% / 2 min) as a function of time as previously described. The effect of the BH4-domain peptides on IICR was tested by pre-incubating the peptides for 4 min before exposing the stores to IP3.

[3] = target: GST-Dom3 IP3R1 (GST fused to IP3R1 Domain 3, aa 923-1581) (mouse, UniProt P11881 923-1581); test: cell-based or functional assay
Chain of GST-Dom3 IP3R1 (GST fused to IP3R1 Domain 3, aa 923-1581) (P11881 923-1581): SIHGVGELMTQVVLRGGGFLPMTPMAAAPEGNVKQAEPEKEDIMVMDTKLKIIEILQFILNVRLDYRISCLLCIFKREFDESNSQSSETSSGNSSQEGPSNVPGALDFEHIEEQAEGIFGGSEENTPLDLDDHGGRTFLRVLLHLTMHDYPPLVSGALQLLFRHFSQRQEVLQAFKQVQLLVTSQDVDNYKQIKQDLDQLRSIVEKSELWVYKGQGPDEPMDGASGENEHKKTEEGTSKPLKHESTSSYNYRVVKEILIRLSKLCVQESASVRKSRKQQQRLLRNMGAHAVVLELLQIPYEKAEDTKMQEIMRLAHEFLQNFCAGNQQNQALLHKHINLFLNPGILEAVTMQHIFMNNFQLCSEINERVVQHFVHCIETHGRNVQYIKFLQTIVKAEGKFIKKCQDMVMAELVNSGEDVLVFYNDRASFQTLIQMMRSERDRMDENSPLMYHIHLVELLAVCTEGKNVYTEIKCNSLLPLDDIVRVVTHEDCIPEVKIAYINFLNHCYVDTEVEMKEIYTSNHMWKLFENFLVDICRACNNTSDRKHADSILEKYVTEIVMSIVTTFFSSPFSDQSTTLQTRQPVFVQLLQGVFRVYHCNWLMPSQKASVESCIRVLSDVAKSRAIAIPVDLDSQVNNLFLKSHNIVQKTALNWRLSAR

In the case of “RTGYDNREGVMKYGHYKLSQRGYEW [Bcl-2-BH4 II/GG, Bcl-2-BH4 peptide with glycines at positions I14/I19]”, the α-helical content [1] is reported as 32% and the “effect on IP3R-mediated Ca2+ release at 50 µM peptide” value [2] is reported as “lost their ability to inhibit IP3R-mediated Ca^2+ release”.

For “RTGYDNREIGMKYGHYKGSQRGYEW [Bcl-2-BH4 VIL/GGG, Bcl-2-BH4 peptide with glycines at positions V15/I19/L23]”, the α-helical content [1] was 17.7% and the “effect on IP3R-mediated Ca2+ release at 50 µM peptide” value [2] was “lost their ability to inhibit IP3R-mediated Ca^2+ release”.

In the case of “WYEKQRSLHGIMYYVIEDRNTKGYR [Bcl-2-BH4 SCR, scrambled version of the Bcl-2-BH4 peptide, reference compound]”, the “effect on IICR, concentration-response” value ([2]; 3 µM IP3, peptide 0.1-100 µM, 3 independent experiments) is reported as “neither Bcl-2-BH4 IV/GG (Figure 3A-B) nor the scrambled version of the Bcl-2-BH4 peptide (Bcl-2-BH4 SCR) (Figure 3B) significantly affect IICR”.

B1: Bcl-2-BH4 peptide (peptide)
peptide: RTGYDNREIVMKYIHYKLSQRGYEW
For B1, the “IC50 of inhibition of IP3-induced Ca2+ release (IICR), unidirectional 45Ca2+ flux in permeabilized MEF cells, 3 µM IP3, peptide 0.1-100 µM” value [3] was roughly 30 µM.
